Data set [1] deals with Sodium-dependent serotonin transporter (Homo sapiens) (UniProt P31645). Kind of data set: Inhibition of human recombinant 5HT transporter at 10 uM by radioligand binding assay.
Data set [2] addresses Muscarinic acetylcholine receptor M3 (Homo sapiens) (UniProt P20309). The data set is described as follows: Inhibition of human recombinant M3 receptor at 10 uM by radioligand binding assay.
The target in data set [3] is Adrenergic receptor alpha-1 (Homo sapiens) (UniProt P35348+P25100+P35368). The data set is described as follows: Inhibition of human recombinant alpha1 receptor at 10 uM by radioligand binding assay.
Data set [4] concerns the target Melanocortin receptor 4 (Homo sapiens) (UniProt P32245). Kind of data set: Inhibition of human recombinant MC4 receptor at 10 uM by radioligand binding assay.
Data set [5] is filed under the species Homo sapiens. The data set is described as follows: Inhibition of human recombinant BZD receptor at 10 uM by radioligand binding assay.
For data set [6], the target named is Voltage-gated L-type calcium channel (Homo sapiens, UniProt Q13936+Q13698+Q01668+O60840). The data set is described as follows: Inhibition of human recombinant L-type Ca2+ channel at 10 uM by radioligand binding assay.
The target in data set [7] is 5-hydroxytryptamine receptor 7 (Homo sapiens) (UniProt P34969). The data set is described as follows: Inhibition of human recombinant 5HT7 receptor at 10 uM by radioligand binding assay.
Sequence of 5-hydroxytryptamine receptor 7 (Homo sapiens) (P34969 whole entry): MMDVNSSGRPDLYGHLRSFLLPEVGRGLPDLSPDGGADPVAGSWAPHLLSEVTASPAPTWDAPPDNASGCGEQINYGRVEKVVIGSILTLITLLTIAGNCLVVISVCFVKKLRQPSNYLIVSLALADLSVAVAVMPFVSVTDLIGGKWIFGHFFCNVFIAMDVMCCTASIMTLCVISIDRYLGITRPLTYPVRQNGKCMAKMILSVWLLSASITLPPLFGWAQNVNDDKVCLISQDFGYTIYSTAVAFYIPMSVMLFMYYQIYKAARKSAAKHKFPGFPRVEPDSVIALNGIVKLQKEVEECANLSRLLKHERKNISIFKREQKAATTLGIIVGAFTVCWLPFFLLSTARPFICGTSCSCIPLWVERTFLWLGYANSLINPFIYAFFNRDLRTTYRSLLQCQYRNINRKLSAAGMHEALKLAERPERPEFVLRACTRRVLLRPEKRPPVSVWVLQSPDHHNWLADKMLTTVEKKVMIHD
The species named for data set [8] is Homo sapiens. The data set is described as follows: Inhibition of human recombinant sodium channel at 10 uM by radioligand binding assay.
The species named for data set [9] is Homo sapiens. Kind of data set: Inhibition of human recombinant sst receptor at 10 uM by radioligand binding assay.
The nature of data set [10]: Inhibition of GSNOR expressed in Escherichia coli using GSNO by cuvette method.
Data set [11] deals with Nociceptin receptor (Homo sapiens) (UniProt P41146). Kind of data set: Inhibition of human recombinant NOP receptor at 10 uM by radioligand binding assay.
Sequence of Nociceptin receptor (Homo sapiens) (P41146 whole entry): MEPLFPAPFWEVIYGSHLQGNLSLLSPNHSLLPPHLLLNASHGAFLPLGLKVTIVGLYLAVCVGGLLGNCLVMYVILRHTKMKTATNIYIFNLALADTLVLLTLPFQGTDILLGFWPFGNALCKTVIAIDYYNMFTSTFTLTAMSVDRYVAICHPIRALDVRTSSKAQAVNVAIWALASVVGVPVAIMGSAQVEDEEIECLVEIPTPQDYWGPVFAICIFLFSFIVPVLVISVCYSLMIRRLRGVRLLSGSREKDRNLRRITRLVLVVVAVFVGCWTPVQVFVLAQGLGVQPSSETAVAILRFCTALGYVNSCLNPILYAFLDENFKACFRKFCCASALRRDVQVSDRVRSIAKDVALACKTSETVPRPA
For data set [12], the target named is Melatonin receptor type 1A (Homo sapiens) (UniProt P48039). The data set is described as follows: Inhibition of human recombinant MT1 receptor at 10 uM by radioligand binding assay.
Sequence of Melatonin receptor type 1A (Homo sapiens) (P48039 whole entry): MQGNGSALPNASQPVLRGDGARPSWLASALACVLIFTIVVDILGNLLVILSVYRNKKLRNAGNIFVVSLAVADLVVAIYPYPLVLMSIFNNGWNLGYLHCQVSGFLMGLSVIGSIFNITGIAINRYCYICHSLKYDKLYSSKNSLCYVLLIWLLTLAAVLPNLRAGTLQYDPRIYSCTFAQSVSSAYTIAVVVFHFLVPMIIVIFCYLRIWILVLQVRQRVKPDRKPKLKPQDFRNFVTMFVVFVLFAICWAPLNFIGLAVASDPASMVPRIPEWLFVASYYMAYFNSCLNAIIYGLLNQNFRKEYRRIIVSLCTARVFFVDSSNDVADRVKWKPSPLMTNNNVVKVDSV
The target in data set [13] is D(2) dopamine receptor (Homo sapiens) (UniProt P14416). The data set is described as follows: Inhibition of human recombinant D2S receptor at 10 uM by radioligand binding assay.
Sequence of D(2) dopamine receptor (Homo sapiens) (P14416 whole entry): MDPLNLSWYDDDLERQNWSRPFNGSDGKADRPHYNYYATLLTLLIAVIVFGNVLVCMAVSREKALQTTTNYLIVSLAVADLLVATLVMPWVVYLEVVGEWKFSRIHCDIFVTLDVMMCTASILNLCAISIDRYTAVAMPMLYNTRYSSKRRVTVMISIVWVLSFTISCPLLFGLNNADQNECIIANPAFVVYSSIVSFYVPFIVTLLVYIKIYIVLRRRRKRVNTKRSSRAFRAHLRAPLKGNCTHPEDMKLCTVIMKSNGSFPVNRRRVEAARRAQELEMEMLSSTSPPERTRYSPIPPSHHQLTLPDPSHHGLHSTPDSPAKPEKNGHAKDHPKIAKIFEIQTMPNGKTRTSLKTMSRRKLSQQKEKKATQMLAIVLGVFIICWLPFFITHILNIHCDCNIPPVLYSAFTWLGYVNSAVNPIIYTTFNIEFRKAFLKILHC
Data set [14] has as its target 5-hydroxytryptamine receptor 1B (Homo sapiens) (UniProt P28222). Kind of data set: Inhibition of human recombinant 5HT1B receptor at 10 uM by radioligand binding assay.
The target of data set [15] is T1, Galanin receptor type 2 (Homo sapiens) (UniProt O43603).
T1 sequence (whole entry): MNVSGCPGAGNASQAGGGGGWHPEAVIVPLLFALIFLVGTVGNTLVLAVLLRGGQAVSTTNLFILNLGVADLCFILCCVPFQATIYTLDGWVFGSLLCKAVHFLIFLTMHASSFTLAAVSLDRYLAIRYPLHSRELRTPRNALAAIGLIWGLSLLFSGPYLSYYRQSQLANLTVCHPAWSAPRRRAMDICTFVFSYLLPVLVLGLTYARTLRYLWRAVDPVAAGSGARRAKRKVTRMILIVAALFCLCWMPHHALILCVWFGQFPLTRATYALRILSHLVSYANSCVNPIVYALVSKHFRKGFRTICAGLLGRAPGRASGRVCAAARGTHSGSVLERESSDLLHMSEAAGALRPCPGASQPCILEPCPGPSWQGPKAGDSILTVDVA
The data set is described as follows: Inhibition of human recombinant GAL2 receptor at 10 uM by radioligand binding assay.

The target of data set [16] is Small conductance calcium-activated potassium channel protein 1 (Homo sapiens) (UniProt Q92952). Kind of data set: Inhibition of human recombinant Skca channel at 10 uM by radioligand binding assay.
Sequence of Small conductance calcium-activated potassium channel protein 1 (Homo sapiens) (Q92952 whole entry): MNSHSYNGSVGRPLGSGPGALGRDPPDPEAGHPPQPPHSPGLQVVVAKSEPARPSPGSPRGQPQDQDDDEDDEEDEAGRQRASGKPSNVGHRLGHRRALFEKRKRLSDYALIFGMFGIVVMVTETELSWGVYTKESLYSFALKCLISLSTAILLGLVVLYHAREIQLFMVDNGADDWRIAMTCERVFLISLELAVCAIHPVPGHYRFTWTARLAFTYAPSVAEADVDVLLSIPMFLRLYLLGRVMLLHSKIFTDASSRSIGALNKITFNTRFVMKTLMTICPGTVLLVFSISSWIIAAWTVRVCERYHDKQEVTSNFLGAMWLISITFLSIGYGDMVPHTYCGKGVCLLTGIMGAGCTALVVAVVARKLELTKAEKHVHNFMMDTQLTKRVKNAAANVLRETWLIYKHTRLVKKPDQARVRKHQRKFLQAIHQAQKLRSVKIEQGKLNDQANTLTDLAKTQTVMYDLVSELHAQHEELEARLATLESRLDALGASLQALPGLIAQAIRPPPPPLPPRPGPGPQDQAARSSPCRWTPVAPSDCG
Data set [17] addresses T2, Vasoactive intestinal polypeptide receptor 1 (Homo sapiens) (UniProt P32241).
T2 sequence (whole entry): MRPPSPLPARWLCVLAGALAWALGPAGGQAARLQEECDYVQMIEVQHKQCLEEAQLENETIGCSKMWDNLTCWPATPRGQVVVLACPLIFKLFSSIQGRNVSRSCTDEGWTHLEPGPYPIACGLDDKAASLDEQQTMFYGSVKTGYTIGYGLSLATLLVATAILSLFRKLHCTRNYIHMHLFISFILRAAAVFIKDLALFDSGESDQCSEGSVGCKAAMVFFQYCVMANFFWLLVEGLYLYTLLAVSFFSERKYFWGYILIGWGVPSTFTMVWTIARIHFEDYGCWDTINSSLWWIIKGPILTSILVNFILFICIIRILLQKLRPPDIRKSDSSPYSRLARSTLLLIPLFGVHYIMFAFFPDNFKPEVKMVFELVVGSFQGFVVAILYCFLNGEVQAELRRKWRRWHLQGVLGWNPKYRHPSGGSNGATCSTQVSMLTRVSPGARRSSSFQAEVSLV
The data set is described as follows: Inhibition of human recombinant VPAC1 receptor at 10 uM by radioligand binding assay.

The target of data set [18] is T3, C-C chemokine receptor type 1 (Homo sapiens) (UniProt P32246).
T3 sequence (whole entry): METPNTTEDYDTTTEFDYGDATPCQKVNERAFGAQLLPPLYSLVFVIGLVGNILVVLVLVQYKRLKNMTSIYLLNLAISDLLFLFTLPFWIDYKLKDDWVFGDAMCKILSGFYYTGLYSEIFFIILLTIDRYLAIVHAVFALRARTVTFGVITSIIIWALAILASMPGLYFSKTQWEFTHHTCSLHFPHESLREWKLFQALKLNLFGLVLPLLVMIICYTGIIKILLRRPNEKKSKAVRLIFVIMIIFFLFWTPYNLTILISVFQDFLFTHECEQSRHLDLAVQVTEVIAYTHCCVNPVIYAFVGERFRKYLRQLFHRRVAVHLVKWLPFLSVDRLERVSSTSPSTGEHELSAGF
Kind of data set: Inhibition of human recombinant CCR1 receptor at 10 uM by radioligand binding assay.

Data set [19] has as its target D(1A) dopamine receptor (Homo sapiens) (UniProt P21728). Kind of data set: Inhibition of human recombinant D1 receptor at 10 uM by radioligand binding assay.
Data set [20] concerns the target Beta-2 adrenergic receptor (Homo sapiens) (UniProt P07550). The data set is described as follows: Inhibition of human recombinant beta2 receptor at 10 uM by radioligand binding assay.
Data set [21] has as its system Neuropeptide Y receptor type 1. The data set is described as follows: Inhibition of human recombinant Y1 receptor at 10 uM by radioligand binding assay.
Data set [22] has as its target Cannabinoid receptor 1 (Homo sapiens) (UniProt P21554). The data set is described as follows: Inhibition of human recombinant CB1 receptor at 10 uM by radioligand binding assay.

SMILES strings stand for the structures. Calls of active or inactive are those of the source. The rule behind the calls is not given here.

Sequence of D(1A) dopamine receptor (Homo sapiens) (P21728 whole entry): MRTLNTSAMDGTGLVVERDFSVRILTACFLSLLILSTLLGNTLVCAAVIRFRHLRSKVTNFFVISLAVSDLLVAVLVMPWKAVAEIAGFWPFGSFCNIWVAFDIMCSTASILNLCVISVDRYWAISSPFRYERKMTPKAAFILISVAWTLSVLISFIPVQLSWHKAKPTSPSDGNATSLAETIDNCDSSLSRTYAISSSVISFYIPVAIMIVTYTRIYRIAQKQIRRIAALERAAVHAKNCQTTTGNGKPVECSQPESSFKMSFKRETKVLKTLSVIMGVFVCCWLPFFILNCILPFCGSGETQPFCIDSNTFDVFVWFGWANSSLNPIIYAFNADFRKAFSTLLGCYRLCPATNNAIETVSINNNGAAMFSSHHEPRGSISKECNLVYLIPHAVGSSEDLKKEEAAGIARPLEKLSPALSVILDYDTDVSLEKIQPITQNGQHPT
Sequence of Melanocortin receptor 4 (Homo sapiens) (P32245 whole entry): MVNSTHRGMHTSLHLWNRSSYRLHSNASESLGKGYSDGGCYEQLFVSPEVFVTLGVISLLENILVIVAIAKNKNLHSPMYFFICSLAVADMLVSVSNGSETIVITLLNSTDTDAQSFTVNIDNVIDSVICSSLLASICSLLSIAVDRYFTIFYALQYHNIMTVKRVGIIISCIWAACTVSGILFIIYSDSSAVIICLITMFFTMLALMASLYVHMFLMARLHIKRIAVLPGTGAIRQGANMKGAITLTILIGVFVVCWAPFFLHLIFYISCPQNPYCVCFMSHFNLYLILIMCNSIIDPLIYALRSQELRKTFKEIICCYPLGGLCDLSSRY
Sequence of 5-hydroxytryptamine receptor 1B (Homo sapiens) (P28222 whole entry): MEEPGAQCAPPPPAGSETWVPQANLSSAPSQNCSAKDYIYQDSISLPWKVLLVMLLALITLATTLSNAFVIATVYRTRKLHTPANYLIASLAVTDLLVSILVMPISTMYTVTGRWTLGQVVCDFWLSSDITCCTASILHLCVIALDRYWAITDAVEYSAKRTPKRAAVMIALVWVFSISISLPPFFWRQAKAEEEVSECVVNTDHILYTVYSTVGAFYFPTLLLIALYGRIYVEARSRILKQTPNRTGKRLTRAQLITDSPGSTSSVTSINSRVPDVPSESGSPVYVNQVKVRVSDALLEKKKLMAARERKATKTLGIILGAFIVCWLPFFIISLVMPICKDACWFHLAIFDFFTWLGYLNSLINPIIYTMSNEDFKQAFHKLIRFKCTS
Sequence of Muscarinic acetylcholine receptor M3 (Homo sapiens) (P20309 whole entry, looked up): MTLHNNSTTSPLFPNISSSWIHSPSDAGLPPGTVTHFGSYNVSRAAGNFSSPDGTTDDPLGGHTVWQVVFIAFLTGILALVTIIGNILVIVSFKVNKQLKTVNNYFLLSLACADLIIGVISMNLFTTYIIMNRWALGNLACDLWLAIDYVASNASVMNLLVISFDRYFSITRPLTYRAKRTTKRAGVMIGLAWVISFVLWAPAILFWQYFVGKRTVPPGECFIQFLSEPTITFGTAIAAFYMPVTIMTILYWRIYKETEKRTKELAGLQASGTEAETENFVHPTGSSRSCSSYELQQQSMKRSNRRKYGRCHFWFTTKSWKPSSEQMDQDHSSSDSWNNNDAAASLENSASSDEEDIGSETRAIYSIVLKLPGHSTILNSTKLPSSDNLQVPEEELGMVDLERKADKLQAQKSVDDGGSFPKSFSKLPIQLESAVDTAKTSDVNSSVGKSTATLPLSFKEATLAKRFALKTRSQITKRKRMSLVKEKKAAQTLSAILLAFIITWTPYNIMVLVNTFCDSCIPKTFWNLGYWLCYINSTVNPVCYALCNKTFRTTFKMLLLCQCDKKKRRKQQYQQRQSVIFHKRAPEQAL
Sequence of Cannabinoid receptor 1 (Homo sapiens) (P21554 whole entry): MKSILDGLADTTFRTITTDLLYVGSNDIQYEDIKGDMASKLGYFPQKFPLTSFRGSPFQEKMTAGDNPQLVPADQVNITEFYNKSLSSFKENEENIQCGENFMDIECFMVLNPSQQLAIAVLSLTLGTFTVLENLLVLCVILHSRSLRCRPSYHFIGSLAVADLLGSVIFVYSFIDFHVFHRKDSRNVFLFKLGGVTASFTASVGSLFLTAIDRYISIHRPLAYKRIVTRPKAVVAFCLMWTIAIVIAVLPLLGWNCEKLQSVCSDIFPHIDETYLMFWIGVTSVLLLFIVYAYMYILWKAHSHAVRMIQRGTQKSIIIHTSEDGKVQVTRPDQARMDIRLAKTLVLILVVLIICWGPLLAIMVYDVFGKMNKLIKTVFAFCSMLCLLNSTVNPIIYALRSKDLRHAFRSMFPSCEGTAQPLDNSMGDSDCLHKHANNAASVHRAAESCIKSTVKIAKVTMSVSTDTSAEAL
Sequence of Beta-2 adrenergic receptor (Homo sapiens) (P07550 whole entry, looked up): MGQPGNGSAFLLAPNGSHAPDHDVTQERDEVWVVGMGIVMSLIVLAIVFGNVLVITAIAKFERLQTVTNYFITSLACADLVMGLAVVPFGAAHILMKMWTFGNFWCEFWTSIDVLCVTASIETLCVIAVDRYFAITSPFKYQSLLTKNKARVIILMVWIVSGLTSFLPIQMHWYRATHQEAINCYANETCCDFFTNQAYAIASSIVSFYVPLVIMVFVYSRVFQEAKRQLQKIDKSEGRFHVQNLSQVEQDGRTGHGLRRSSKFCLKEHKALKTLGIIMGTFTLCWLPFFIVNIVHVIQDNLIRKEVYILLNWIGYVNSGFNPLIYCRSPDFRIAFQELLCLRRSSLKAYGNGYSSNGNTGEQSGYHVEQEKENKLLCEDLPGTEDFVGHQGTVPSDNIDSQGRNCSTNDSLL

For the compound `COc1ccc(-c2ccn(-c3ccc(C(=O)O)c(O)c3)c2-c2ccc(C(N)=O)cc2C)cc1`, the inhibition entry (in data set [1]; in [2]; in [3]; in data set [4]; in the data set listed under Homo sapiens [5]; in data set [7]) was “Active” in each case. The inhibition result (in the data set filed under Homo sapiens [8]; in the data set listed under Homo sapiens [9]; in [11]; in data set [12]; in data set [13]; in [14]) was “Active” in each case. The inhibition result in data set [15], in [16], in [17], in [18], in data set [19] and in data set [20] was “Active” throughout. Also, the inhibition result in [21] and in [22] was “Active” each time. For the same compound, the “inhibition (INH)” value in data set [6] is on record as “Active”. 280 nM corresponded to half-maximal inhibition in data set [10] (IC50).

For the compound `Cc1cc(C(N)=O)ccc1-c1c(CCC(=O)O)ccn1-c1ccc(-n2ccnc2)cc1`, the inhibition result (in data set [1]; in [2]; in data set [3]; in data set [4]; in the data set listed under Homo sapiens [5]; in data set [7]) was “inactive” throughout. For the same compound, the inhibition entry (in the data set listed under Homo sapiens [8]; in the data set filed under Homo sapiens [9]; in data set [11]; in [12]; in data set [13]; in data set [14]) was “inactive” in each case. Besides, the inhibition result in data set [15], in data set [16], in data set [17], in [18], in [19] and in [20] was “inactive” in each case. Besides, the inhibition result in data set [21] and in [22] was “inactive” each time. Also, the “inhibition (INH)” value in [6] is on record as “Not Active”.

Consider `Cc1cc(C(N)=O)ccc1-n1c(CCC(=O)O)ccc1-c1ccc(-n2ccnc2)cc1` [N6022], for which the inhibition entry (in data set [1]; in [2]; in data set [3]; in data set [4]; in the data set listed under Homo sapiens [5]; in [7]) was “inactive” in each case. The inhibition entry (in the data set listed under Homo sapiens [8]; in the data set filed under Homo sapiens [9]; in [11]; in data set [12]; in [13]; in data set [14]) was “inactive” in each case. Moreover, the inhibition entry in data set [15], in data set [16], in [17], in data set [18], in data set [19] and in [20] was “inactive” each time. The inhibition result in [22] is “inactive”. Further, the “inhibition (INH)” value in [6] is reported as “Not Active”. The IC50 in data set [10] was 20 nM.

For `COc1ccc(-c2ccn(-c3ccc(O)c([N+](=O)[O-])c3)c2-c2ccc(C(N)=O)cc2C)cc1`, the inhibition entry (in data set [1]; in data set [2]; in data set [3]; in data set [4]; in the data set listed under Homo sapiens [5]; in data set [7]) was “Active” in each case. For the same compound, the inhibition result (in the data set listed under Homo sapiens [8]; in the data set filed under Homo sapiens [9]; in data set [11]; in [12]; in [13]; in data set [14]) was “Active” in each case. Besides, the inhibition result in data set [15], in data set [16], in [17], in [18], in [19] and in data set [20] was “Active” throughout. The inhibition entry in data set [21] and in [22] was “Active” throughout. Further, in data set [6], the “inhibition (INH)” value is listed as “Active”. In [10], this compound yielded an IC50 of 190 nM.

Regarding `Cc1cc(C(N)=O)ccc1-c1c(-c2ccc(-n3ccnc3)cc2)ccn1CCC(=O)O`, the inhibition entry (in data set [1]; in data set [2]; in data set [3]; in [4]; in the data set filed under Homo sapiens [5]; in data set [7]) was “inactive” in each case. Further, the inhibition result (in the data set filed under Homo sapiens [8]; in the data set filed under Homo sapiens [9]; in [11]; in data set [12]; in data set [13]; in [14]) was “inactive” each time. Besides, the inhibition entry in data set [15], in data set [16], in data set [17], in data set [18], in data set [19] and in [20] was “inactive” throughout. Moreover, the inhibition result in [21] and in data set [22] was “inactive” throughout. Moreover, the “inhibition (INH)” value in data set [6] is given as “Not Active”.

A word on the IC50: it is the concentration needed to halve the response being measured. Read a high IC50 as weaker potency.

These data come from ChEMBL document CHEMBL1781986, “Structure-activity relationships of pyrrole based S-nitrosoglutathione reductase inhibitors: pyrrole regioisomers and propionic acid replacement” (Bioorg Med Chem Lett, 2011).
